Measurements taken from patent US9926302B2, “Heteroaryl substituted heterocyclyl sulfones” (priority 2014, dated 2018).

Molecular target: T1, Human CaV2.2 channels (Homo sapiens, UniProt Q00975)
T1 construct: expressed in transfected cells
Test: Fluorescence assay for CaV2.2 channels using potassium depolarization to induce channel opening (FLIPR, Fluo 4)
Format: cell-based
Settings: alternative assay buffer 30 mM KCl (inactivated channel state), HEK293 cells stably expressing human CaV2.2; for inhibition at 3 µM: HEK293, 3 μM test compound, read-out: Activity Category: %-Inhib (CaV2.2) @3 μM @30 mM KCl; for Activity Category: %-Inhib (CaV2.2) @3 μM @30 mM KCl: 3 μM test compound
Method in brief: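 HEK293 cells stably co-expressing CaV2.2 with alpha2-delta and beta subunits plus Kir2.3, loaded with 2 μM Fluo 4 and pre-incubated 15 min at 25° C with compound in 1 mM or 30 mM KCl buffer (pH 7.4; latter promotes inactivated state). Depolarized by KCl addition; peak fluorescence amplitude normalized to baseline gives inhibition.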

T1 sequence (P54289 947-1103): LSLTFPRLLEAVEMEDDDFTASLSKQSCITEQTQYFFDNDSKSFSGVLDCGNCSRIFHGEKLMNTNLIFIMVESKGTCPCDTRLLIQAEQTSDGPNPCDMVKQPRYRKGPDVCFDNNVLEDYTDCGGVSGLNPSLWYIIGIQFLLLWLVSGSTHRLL
T1 sequence (P54289 25-946): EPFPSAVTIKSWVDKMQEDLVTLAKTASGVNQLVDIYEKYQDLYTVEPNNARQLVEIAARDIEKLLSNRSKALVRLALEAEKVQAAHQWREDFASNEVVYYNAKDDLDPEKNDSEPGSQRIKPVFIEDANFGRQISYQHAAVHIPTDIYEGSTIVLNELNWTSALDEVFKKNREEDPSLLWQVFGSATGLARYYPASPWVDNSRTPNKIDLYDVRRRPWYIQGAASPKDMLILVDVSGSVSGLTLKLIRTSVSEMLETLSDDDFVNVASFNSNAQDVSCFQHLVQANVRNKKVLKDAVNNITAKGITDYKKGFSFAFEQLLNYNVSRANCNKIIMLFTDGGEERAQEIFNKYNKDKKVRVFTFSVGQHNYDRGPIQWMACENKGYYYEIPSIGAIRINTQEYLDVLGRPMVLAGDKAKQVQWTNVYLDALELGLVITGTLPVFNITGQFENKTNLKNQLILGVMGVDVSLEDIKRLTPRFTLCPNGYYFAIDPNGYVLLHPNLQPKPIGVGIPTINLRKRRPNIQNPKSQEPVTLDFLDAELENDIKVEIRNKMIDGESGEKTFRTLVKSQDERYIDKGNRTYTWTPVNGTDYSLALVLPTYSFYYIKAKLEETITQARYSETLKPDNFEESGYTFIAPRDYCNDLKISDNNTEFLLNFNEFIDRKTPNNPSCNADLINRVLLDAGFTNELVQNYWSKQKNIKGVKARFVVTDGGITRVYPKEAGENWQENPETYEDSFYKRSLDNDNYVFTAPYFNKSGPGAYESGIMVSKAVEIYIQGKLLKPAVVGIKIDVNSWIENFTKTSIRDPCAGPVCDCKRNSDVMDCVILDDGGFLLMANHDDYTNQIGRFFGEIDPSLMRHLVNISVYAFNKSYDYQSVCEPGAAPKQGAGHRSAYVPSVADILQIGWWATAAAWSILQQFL
T1 sequence (P54284 whole entry, further chain): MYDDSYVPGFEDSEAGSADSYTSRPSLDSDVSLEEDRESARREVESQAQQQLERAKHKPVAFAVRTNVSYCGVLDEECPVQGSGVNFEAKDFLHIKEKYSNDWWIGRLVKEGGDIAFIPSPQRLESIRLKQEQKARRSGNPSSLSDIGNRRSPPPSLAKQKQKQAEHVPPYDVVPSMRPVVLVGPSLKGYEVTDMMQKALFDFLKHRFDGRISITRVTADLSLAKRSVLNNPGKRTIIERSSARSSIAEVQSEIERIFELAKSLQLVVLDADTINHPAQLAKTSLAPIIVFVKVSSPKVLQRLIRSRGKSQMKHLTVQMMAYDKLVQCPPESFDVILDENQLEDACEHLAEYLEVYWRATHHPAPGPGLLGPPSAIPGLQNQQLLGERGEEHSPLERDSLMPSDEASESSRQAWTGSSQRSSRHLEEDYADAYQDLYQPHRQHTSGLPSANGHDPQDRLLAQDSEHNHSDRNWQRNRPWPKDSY
T1 sequence (Q00975 whole entry): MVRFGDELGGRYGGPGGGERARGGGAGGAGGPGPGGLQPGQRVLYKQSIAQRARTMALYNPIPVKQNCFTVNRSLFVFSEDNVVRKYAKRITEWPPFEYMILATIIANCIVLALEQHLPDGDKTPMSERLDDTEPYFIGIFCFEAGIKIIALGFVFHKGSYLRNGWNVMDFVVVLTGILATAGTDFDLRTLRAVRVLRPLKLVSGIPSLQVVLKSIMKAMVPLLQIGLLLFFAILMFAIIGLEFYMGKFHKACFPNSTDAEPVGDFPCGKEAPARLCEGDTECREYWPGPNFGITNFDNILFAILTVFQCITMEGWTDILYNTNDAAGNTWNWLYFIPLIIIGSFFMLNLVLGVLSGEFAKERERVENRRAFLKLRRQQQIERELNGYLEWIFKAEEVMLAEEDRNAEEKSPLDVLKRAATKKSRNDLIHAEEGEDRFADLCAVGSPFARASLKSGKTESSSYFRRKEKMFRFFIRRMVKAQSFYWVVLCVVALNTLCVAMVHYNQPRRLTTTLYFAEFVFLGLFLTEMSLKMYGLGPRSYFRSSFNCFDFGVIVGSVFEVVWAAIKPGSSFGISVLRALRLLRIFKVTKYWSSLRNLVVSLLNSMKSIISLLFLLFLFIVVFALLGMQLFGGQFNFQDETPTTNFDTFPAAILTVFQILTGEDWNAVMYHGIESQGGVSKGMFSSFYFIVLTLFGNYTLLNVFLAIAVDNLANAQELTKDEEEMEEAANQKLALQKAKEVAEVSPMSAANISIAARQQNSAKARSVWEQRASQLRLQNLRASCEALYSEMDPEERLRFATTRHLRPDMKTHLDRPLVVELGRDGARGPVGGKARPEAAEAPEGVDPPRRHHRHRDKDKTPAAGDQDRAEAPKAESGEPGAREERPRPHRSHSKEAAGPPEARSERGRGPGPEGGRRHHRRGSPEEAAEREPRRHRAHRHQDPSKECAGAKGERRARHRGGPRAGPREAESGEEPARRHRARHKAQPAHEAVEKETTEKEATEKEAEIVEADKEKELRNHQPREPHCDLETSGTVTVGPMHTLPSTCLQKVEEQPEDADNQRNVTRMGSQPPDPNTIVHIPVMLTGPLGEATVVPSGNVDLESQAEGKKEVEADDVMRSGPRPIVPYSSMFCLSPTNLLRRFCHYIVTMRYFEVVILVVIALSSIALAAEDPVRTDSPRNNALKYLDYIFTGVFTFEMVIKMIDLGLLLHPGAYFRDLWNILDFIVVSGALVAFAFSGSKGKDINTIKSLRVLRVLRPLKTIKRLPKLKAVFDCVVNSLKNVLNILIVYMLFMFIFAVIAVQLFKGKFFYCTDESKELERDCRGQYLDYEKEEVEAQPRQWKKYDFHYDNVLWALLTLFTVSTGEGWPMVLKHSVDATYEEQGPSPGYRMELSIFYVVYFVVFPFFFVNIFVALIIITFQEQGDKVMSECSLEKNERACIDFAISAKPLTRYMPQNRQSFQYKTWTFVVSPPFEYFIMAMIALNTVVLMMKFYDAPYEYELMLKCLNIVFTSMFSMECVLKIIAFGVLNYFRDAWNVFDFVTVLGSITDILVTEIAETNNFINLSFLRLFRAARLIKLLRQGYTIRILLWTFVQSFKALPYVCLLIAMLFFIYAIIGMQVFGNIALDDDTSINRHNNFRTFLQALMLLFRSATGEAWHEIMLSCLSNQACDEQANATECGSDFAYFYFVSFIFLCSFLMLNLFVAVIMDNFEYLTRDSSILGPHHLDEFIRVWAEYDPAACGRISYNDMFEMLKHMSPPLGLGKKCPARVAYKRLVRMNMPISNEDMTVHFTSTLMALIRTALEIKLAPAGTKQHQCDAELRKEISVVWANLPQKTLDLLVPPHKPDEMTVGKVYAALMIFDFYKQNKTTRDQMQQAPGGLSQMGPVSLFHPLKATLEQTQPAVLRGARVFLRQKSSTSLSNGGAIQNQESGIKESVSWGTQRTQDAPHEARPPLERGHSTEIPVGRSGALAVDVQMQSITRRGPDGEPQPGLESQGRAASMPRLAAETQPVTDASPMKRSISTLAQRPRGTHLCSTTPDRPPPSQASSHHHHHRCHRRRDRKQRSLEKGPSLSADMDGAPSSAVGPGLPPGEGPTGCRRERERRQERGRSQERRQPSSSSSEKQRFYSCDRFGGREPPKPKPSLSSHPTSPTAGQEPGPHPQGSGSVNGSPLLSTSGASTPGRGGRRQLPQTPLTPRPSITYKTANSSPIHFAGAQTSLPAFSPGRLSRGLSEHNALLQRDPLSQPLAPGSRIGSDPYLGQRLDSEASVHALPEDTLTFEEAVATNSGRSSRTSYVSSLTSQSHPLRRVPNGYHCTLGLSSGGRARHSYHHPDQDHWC

Compound | inhibition at 3 µM | Activity Category: %-Inhib (CaV2.2) @3 μM @30 mM KCl
CC1(S(=O)(=O)c2cccc(C(F)(F)F)c2)CCOC(c2ncc(S(C)(=O)=O)cc2C(F)(F)F)C1 (stereo not shown) [SC-222, 5-Methylsulfonyl-2-[4-methyl-4-[[3-(trifluoromethyl)phenyl]sulfonyl]-tetrahydro-pyran-2-yl]-3-(trifluoromethyl)-pyridine] | 75 to 95% | –
COc1cc(S(C)(=O)=O)cnc1C1CC(C)(S(=O)(=O)c2cccc(C(F)(F)F)c2)CCO1 (stereo not shown) [SC-224, 3-Methoxy-5-methylsulfonyl-2-[4-methyl-4-[[3-(trifluoromethyl)phenyl]sulfonyl]-tetrahydro-pyran-2-yl]-pyridine] | 75 to 95% | –
CC1(S(=O)(=O)c2cccc(C(F)(F)F)c2)CCOC(c2ncc(Cl)cc2S(C)(=O)=O)C1 (stereo not shown) [SC-226, 5-Chloro-3-methylsulfonyl-2-[4-methyl-4-[[3-(trifluoromethyl)phenyl]sulfonyl]-tetrahydro-pyran-2-yl]-pyridine] | 75 to 95% | –
C[S+]([O-])c1cc(C(F)(F)F)cnc1C1CC(C)(S(=O)(=O)c2cccc(C(F)(F)F)c2)CCO1 (stereo not shown) [SC-228, 3-(Methylsulfinyl)-2-[4-methyl-4-[[3-(trifluoromethyl)phenyl]sulfonyl]-tetrahydro-pyran-2-yl]-5-(trifluoromethyl)-pyridine] | > 95% | –
C[S+]([O-])c1cc(C(F)(F)F)cnc1C1CC(C)(S(=O)(=O)c2cccc(C(F)(F)F)c2)CCO1 (stereo not shown) [SC-229, 3-(Methylsulfinyl)-2-[4-methyl-4-[[3-(trifluoromethyl)phenyl]sulfonyl]-tetrahydro-pyran-2-yl]-5-(trifluoromethyl)-pyridine] | – | B (%-Inhibition >75% up to ≤95%)
C[S+]([O-])c1cc(C(F)(F)F)cnc1C1CC(C)(S(=O)(=O)c2cccc(C(F)(F)F)c2)CCO1 (stereo not shown) [SC-230, 3-(Methylsulfinyl)-2-[4-methyl-4-[[3-(trifluoromethyl)phenyl]sulfonyl]-tetrahydro-pyran-2-yl]-5-(trifluoromethyl)-pyridine] | – | B (%-Inhibition >75% up to ≤95%)
C[S+]([O-])c1cc(C(F)(F)F)cnc1C1CC(C)(S(=O)(=O)c2cccc(C(F)(F)F)c2)CCO1 (stereo not shown) [SC-231, 3-(Methylsulfinyl)-2-[4-methyl-4-[[3-(trifluoromethyl)phenyl]sulfonyl]-tetrahydro-pyran-2-yl]-5-(trifluoromethyl)-pyridine] | – | B (%-Inhibition >75% up to ≤95%)
C[S+]([O-])c1cnc(C2CC(C)(S(=O)(=O)c3cccc(C(F)(F)F)c3)CCO2)c(Cl)c1 (stereo not shown) [SC-233, 3-Chloro-5-(methylsulfinyl)-2-[4-methyl-4-[[3-(trifluoromethyl)phenyl]sulfonyl]-tetrahydro-pyran-2-yl]-pyridine] | 40 to 75% | –
CC1(S(=O)(=O)c2cccc(C(F)(F)F)c2)CCOC(c2ncc(C(F)F)cc2Cl)C1 (stereo not shown) [SC-236, 3-Chloro-5-(difluoro-methyl)-2-[4-methyl-4-[[3-(trifluoromethyl)phenyl]sulfonyl]-tetrahydro-pyran-2-yl]-pyridine] | 75 to 95% | –
CCC1(S(=O)(=O)c2cccc(C(F)(F)F)c2)CCOC(c2noc(C3CC3)n2)C1 (stereo not shown) [SC-238, 5-Cyclopropyl-3-[4-ethyl-4-[[3-(trifluoromethyl)phenyl]sulfonyl]-tetrahydro-pyran-2-yl]-[1,2,4]oxadiazole] | 75 to 95% | –
CCC1(S(=O)(=O)c2cccc(C(F)(F)F)c2)CCOC(c2nnc(C(F)(F)F)o2)C1 (stereo not shown) [SC-240, 2-[4-Ethyl-4-[[3-(trifluoromethyl)phenyl]sulfonyl]-tetrahydro-pyran-2-yl]-5-(trifluoromethyl)-[1,3,4]oxadiazole] | – | C (%-Inhibition >40% up to ≤75%)
CCC1(S(=O)(=O)c2cccc(C(F)(F)F)c2)CCOC(c2nnc(C(F)(F)F)o2)C1 (stereo not shown) [SC-241, 2-[4-Ethyl-4-[[3-(trifluoromethyl)phenyl]sulfonyl]-tetrahydro-pyran-2-yl]-5-(trifluoromethyl)-[1,3,4]oxadiazole] | – | B (%-Inhibition >75% up to ≤95%)
CC1(S(=O)(=O)c2cccc(C(F)(F)F)c2)CCOC(c2ccc(Cl)cn2)C1 (stereo not shown) [SC-243, 5-Chloro-2-[4-methyl-4-[[3-(trifluoromethyl)phenyl]sulfonyl]-tetrahydro-pyran-2-yl]-pyridine] | > 95% | –
CC1(S(=O)(=O)c2cccc(C(F)(F)F)c2)CCOC(c2ccc(Cl)cn2)C1 (stereo not shown) [SC-244, 5-Chloro-2-[4-methyl-4-[[3-(trifluoromethyl)phenyl]sulfonyl]-tetrahydro-pyran-2-yl]-pyridine] | – | B (%-Inhibition >75% up to ≤95%)
COc1cc(OC)c(C2CC(C)(S(=O)(=O)c3cccc(C(F)(F)F)c3)CCO2)cn1 (stereo not shown) [SC-245, 2,4-Dimethoxy-5-[4-methyl-4-[[3-(trifluoromethyl)phenyl]sulfonyl]-tetrahydro-pyran-2-yl]-pyridine] | 75 to 95% | –
COc1cc(OC)c(C2CC(C)(S(=O)(=O)c3cccc(C(F)(F)F)c3)CCO2)cn1 (stereo not shown) [SC-246, 2,4-Dimethoxy-5-[4-methyl-4-[[3-(trifluoromethyl)phenyl]sulfonyl]-tetrahydro-pyran-2-yl]-pyridine] | – | A (%-Inhibition >95%)

Compound | inhibition at 3 µM | Activity Category: %-Inhib (CaV2.2) @3 μM @30 mM KCl
COc1cc(C)c(C2CC(C)(S(=O)(=O)c3cccc(C(F)(F)F)c3)CCO2)cn1 (stereo not shown) [SC-248, 2-Methoxy-4-methyl-5-[4-methyl-4-[[3-(trifluoromethyl)phenyl]sulfonyl]-tetrahydro-pyran-2-yl]-pyridine] | 75 to 95% | –
COc1cc(O)c(C2CC(C)(S(=O)(=O)c3cccc(C(F)(F)F)c3)CCO2)cn1 (stereo not shown) [SC-251, 2-Methoxy-5-[4-methyl-4-[[3-(trifluoromethyl)phenyl]sulfonyl]-tetrahydro-pyran-2-yl]-pyridin-4-ol] | 40 to 75% | –
COc1cc(OC(F)F)c(C2CC(C)(S(=O)(=O)c3cccc(C(F)(F)F)c3)CCO2)cn1 (stereo not shown) [SC-253, 4-(Difluoro-methoxy)-2-methoxy-5-[4-methyl-4-[[3-(trifluoromethyl)phenyl]sulfonyl]-tetrahydro-pyran-2-yl]-pyridine] | 75 to 95% | –
COc1cc(OC(F)F)c(C2CC(C)(S(=O)(=O)c3cccc(C(F)(F)F)c3)CCO2)cn1 (stereo not shown) [SC-254, 4-(Difluoro-methoxy)-2-methoxy-5-[4-methyl-4-[[3-(trifluoromethyl)phenyl]sulfonyl]-tetrahydro-pyran-2-yl]-pyridine] | – | A (%-Inhibition >95%)
COc1ncc(C2CC(C)(S(=O)(=O)c3cccc(C(F)(F)F)c3)CCO2)cc1F (stereo not shown) [SC-255, 3-Fluoro-2-methoxy-5-[4-methyl-4-[[3-(trifluoromethyl)phenyl]sulfonyl]-tetrahydro-pyran-2-yl]-pyridine] | > 95% | –
COc1ncc(C2CC(C)(S(=O)(=O)c3cccc(C(F)(F)F)c3)CCO2)cc1F (stereo not shown) [SC-256, 3-Fluoro-2-methoxy-5-[4-methyl-4-[[3-(trifluoromethyl)phenyl]sulfonyl]-tetrahydro-pyran-2-yl]-pyridine] | – | B (%-Inhibition >75% up to ≤95%)
COc1cc(F)c(C2CC(C)(S(=O)(=O)c3cccc(C(F)(F)F)c3)CCO2)cn1 (stereo not shown) [SC-257, 4-Fluoro-2-methoxy-5-[4-methyl-4-[[3-(trifluoromethyl)phenyl]sulfonyl]-tetrahydro-pyran-2-yl]-pyridine] | 75 to 95% | –
COc1cc(F)c(C2CC(C)(S(=O)(=O)c3cccc(C(F)(F)F)c3)CCO2)cn1 (stereo not shown) [SC-258, 4-Fluoro-2-methoxy-5-[4-methyl-4-[[3-(trifluoromethyl)phenyl]sulfonyl]-tetrahydro-pyran-2-yl]-pyridine] | – | A (%-Inhibition >95%)
COc1cc(C#N)c(C2CC(C)(S(=O)(=O)c3cccc(C(F)(F)F)c3)CCO2)cn1 (stereo not shown) [SC-260, 2-Methoxy-5-[4-methyl-4-[[3-(trifluoromethyl)phenyl]sulfonyl]-tetrahydro-pyran-2-yl]-isonicotinonitrile] | – | A (%-Inhibition >95%)
COc1cc(C#N)c(C2CC(C)(S(=O)(=O)c3cccc(C(F)(F)F)c3)CCO2)cn1 (stereo not shown) [SC-261, 2-Methoxy-5-[4-methyl-4-[[3-(trifluoromethyl)phenyl]sulfonyl]-tetrahydro-pyran-2-yl]-isonicotinonitrile] | – | C (%-Inhibition >40% up to ≤75%)
Cc1cc(S(C)(=O)=O)cnc1C1CC(C)(S(=O)(=O)c2cccc(C(F)(F)F)c2)CCO1 (stereo not shown) [SC-262, 3-Methyl-5-methylsulfonyl-2-[4-methyl-4-[[3-(trifluoromethyl)phenyl]sulfonyl]-tetrahydro-pyran-2-yl]-pyridine] | 75 to 95% | –
CC1(S(=O)(=O)c2cccc(C(F)F)c2)CCOC(c2ncc(S(C)(=O)=O)cc2Cl)C1 (stereo not shown) [SC-265, 3-Chloro-2-[4-[[3-(difluoro-methyl)-phenyl]sulfonyl]-4-methyl-tetrahydro-pyran-2-yl]-5-methylsulfonyl-pyridine] | 40 to 75% | –
CC1(S(=O)(=O)c2cccc(C(F)(F)F)c2)CCOC(c2ncc(OC(F)F)cc2S(C)(=O)=O)C1 (stereo not shown) [SC-266, 5-(difluoromethoxy)-2-(4-methyl-4-((3-(trifluoromethyl)phenyl)sulfonyl)tetrahydro-2H-pyran-2-yl)-3-(methylsulfonyl)pyridine] | > 95% | –
CC1(S(=O)(=O)c2cccc(C(F)(F)F)c2)CCOC(c2ncc(S(C)(=O)=O)cc2OC(F)F)C1 (stereo not shown) [SC-268, 3-(difluoromethoxy)-2-(4-methyl-4-((3-(trifluoromethyl)phenyl)sulfonyl)tetrahydro-2H-pyran-2-yl)-5-(methylsulfonyl)pyridine] | 75 to 95% | –
CC1(S(=O)(=O)c2cccc(C(F)(F)F)c2)CCOC(c2ncc(S(C)(=O)=O)cc2OC(F)F)C1 (stereo not shown) [SC-269, 3-(difluoromethoxy)-2-(4-methyl-4-((3-(trifluoromethyl)phenyl)sulfonyl)tetrahydro-2H-pyran-2-yl)-5-(methylsulfonyl)pyridine] | – | A (%-Inhibition >95%)
